US20240238199A1, “STABLE LIQUID PHARMACEUTICAL COMPOSITIONS HAVING HIGH DRUG LOADINGS OF MEDIUM CHAIN TRIGLYCERIDES AND METHODS RELATED THERETO” (CERECIN INC., priority 2021, published 2024)

Tests used:
[1] = Emulsion physical stability (visual / overall assessment); type: physicochemical; settings: at pH7
Source text: As described herein, the pharmaceutical compositions of the disclosure may form a stable liquid emulsion at ambient conditions. An emulsion refers to a composition which, when diluted with water or other aqueous medium and gently mixed, yields a stable oil/water emulsion with a mean particle size of less than about 1 μm, but greater than about 100 nm, (i.e., 0.1-1 μm) and which is generally polydisperse. Such an emulsion is stable, meaning there is no visibly detectable phase separation and that there is no visibly detectable crystallization.
Equal mix of Phospholipon 90 G, Kolliphor RH40 and Capmul PG-8 was also very stable. Particle size evolution of Phospholipon 90G, Kolliphor RH40, Capmul PG-8 emulsions prepared via Ultra Turrax emulsification are shown in FIG. 4, and particle size evolution of 10 Phospholipon 90G, Kolliphor RH40, Capmul PG-8 emulsions: prepared via Silverson & High Pressure Homogeniser emulsification are shown in FIG. 5. Visual appearance of Phospholipon 90G, Kolliphor RH40, Capmul PG-8 emulsions under a 1 month stability study are shown in FIG. 6.

[2] = Gamma irradiation: physiochemical testing pre & post treatment; type: physicochemical
Source text: Gamma irradiation is a commonly accepted method of sterilizing componentry and reducing bio load in natural materials. Exemplary formulations were irradiated at various dosages and then assessed for the impact of irradiation on product performance.

Appearance: Complies/fails ([2]; gamma irradiation 10 kGy)	Assay: Complies/fails ([2]; gamma irradiation 10 kGy)	Related substances: Complies/fails ([2]; gamma irradiation 10 kGy)	Related substances: result after treatment ([2]; gamma irradiation 10 kGy)	Appearance: Complies/fails ([2]; gamma irradiation 15 kGy)	Assay: Complies/fails ([2]; gamma irradiation 15 kGy)	Related substances: Complies/fails ([2]; gamma irradiation 15 kGy)	Related substances: result after treatment ([2]; gamma irradiation 15 kGy)	Appearance: Complies/fails ([2]; gamma irradiation 25 kGy)	Assay: Complies/fails ([2]; gamma irradiation 25 kGy)	Related substances: Complies/fails ([2]; gamma irradiation 25 kGy)	Related substances: result after treatment ([2]; gamma irradiation 25 kGy)	SMILES	effect on emulsion stability [1]
–	–	–	–	–	–	–	–	–	–	–	–	CCCCCCCC/C=C\CCCCCCCC(=O)[O-].[Na+] [Sodium oleate]	slight destabilizing effect
Complies	Complies	Complies*	profile changes	Complies	Complies	Complies*	profile changes	Complies	Complies	Complies*	profile changes	CCCCCCCC(=O)OCC(COC(=O)CCCCCCC)OC(=O)CCCCCCC [Tricaprylin]	–
